Measured values: patent US20240270786A1, “STEROID COMPOUNDS” (Epirium Bio Inc., priority 2022, published 2024)
“And” between values parts separate entries of the source, which are not always exact repeats. Equal entries are not always repeated.

Key:
[1] = test system: PGC-1α expression in C2C12 cells; test: In vitro PGC-1α expression in C2C12 cells (cell ELISA); assay type: cell-based; conditions: 5000 cells/well, OD @ 650 nm, DMSO control = 100
Protocol: Culture conditions: DMEM containing 25 mM glucose with 10% FBS supplementation; grown at 37° C. and 5% CO2.
Drugs: (+)-Epicatechin, AICAR (direct activator of AMPK).
Assay Conditions: C2C12 cells were cultured in DMEM supplemented in 10% FBS upto 80% confluence. The cells were further trypsinized and seeded into a 96 well plate at a density of 5000 cells/well (well volume—100 μL) (Day 0). Following attachment, the cells were allowed to reach 80-90% confluence in the plate (typically 48 hours post seeding) and further differentiated using DMEM+2% Horse Serum (200 μL/well). The media was changed every day or at least every alternate day for 5 days to allow myoblasts to differentiate into myotubes. On day 7 (post seeding), the cells were treated with standards and test compounds for PGC-1 α assay.
PGC-1α assay: For the detection of PGC-1a, the cells were incubated with 0.5 μg/ml primary antibody (Merck, WH0010891M3) in PBS-T containing 5% BSA at 4° C. overnight. The cells were then washed three times with PBS-T for 5 minutes and incubated with 1:1000 dilution secondary antibody (Anti-rabbit IgG, HRP-linked Antibody, Cell Signaling) in PBS-T with 1% BSA for 1 hour at RT. Cells were washed three times with PBS-T for 5 minutes The cells were incubated with 100 μl TMB substrate solution for 30 minutes and the reaction was stopped with 100 μl of 2N H2SO4. […] (For plate optical density calculations, a background correction was taken at 540 nm). The final PGC-1a activation % is average of activation of 6 replicates.

PGC-1α = test: In vivo PGC-1α expression in liver of LPS-treated mice (ELISA); parameters: species or system C57BL/6 mice; conditions: for PGC-1α levels: C57BL/6 mice; for PGC-1α level (%): Control = 100
Protocol: C57BL/6 mice were procured from Vivo Bio Tech Ltd. Male mice were used for the study within an age range of 7 to 8 weeks. Body weight for these mice ranged from 20 g to 25 g. Animals were housed in a group of 6 in individually ventilated cages with temperature of 22±3° C., a relative humidity of 50 to 60%. The bottom of the cages was layered with sterilized corn cob. Animals were provided with gamma irradiated feed and autoclaved drinking water ad-libitum. The IVCs were maintained at an environment controlled (Centrally Air-Conditioned) room at a temperature of 22±3° C., a relative humidity of 50 to 60%, light intensity of 250-300 lux and a 12 hour light-dark cycle and noise intensity of <85 db.
Method of Preparation: LPS was dosed at 3 mg/kg in a dose volume of 10 ml/kg. For this, 0.3 mg/ml of LPS solution (Micronized suspension) was prepared. Butter paper was placed on analytical balance, tarred and LPS was placed on butter paper and its weight was noted down. LPS was transferred to 15 ml falcon tube. Then required amount of normal saline was added to it to make it 0.3 mg/ml. The solution was vortexed properly for 5 minutes and placed on ice. LPS solution was vortexed every time before aspiration and injection.
LPS was dosed at 3 mg/kg. Each test compound was dosed at 10 mg/kg, 2 hour and 15 min post LPS administration.
0.5% CMC was used as a vehicle with a dose volume of 10 ml/kg. An IP route was used for LPS, and a PO route was used for each test compound. Animals were sacrified 24 hours post LPS dosing, and plasma were collected. PGC-1α level was measured in liver samples, and other tissues were stored for future analysis. PGC-1α level was checked using ELISA kit—CUSABIO Mouse PPARGC1A ELISA kit.
Protocol: One day before start of the experiment C57BL/6 Mice (Male, 6-7-week-old) were randomized on the basis of their body weight and were divided into groups. All the cages were assigned the respective group name. Animals inside each cage were marked on the base of the tails with permanent marker to distinguish each animal. Mice were fasted overnight. Next day morning animals were dosed with test item. Group 1 (Control) and Group 2 (LPS) Animals were dosed with vehicle (0.5% CMC). Test items were prepared in 0.5% CMC by trituration in mortar and pestle and addition of CMC drop by drop. 2 hour post test item/vehicle dosing animals were administered with LPS through IP route at 3 mg/kg of body weight. Group 1 (Control) animals were administered with saline. 0.25 hour post LPS administration, animals were again dosed with test item/vehicle. Post dosing, animals were returned to their respective cages and kept until termination of the study. No feed was offered to any group. Animals were provided with water. 24 hour post LPS administration, blood was collected from each animal under influence of mild isoflurane anesthesia through retro-orbital technique. Animals were sacrificed by CO2 asphyxiation technique. Post-termination, animals were dissected and vital organs, liver, brain, skeleton muscle were collected in Eppendorf tubes and flash frozen in liquid nitrogen. Serum was collected from whole blood by centrifuging it at 4° C. at 10,000 RPM and for 10 minutes. (Blood was left for 2 hour for coagulation before centrifugation) After completion of the experiment, all collected samples were stored at −80° C. until analysis.
Assay Methods/Protocol: The mortar was chilled with liquid nitrogen and then the small tissue pieces were grinded in the presence of liquid nitrogen to a fine powder. Immediately after grinding, transferred small amount of tissue powder to a 1.5 ml micro centrifuge tube containing 1.0 ml lysis buffer (RIPA buffer+Protease inhibitor). The samples were then incubated on ice for 2 hours. The samples were vortexed every 15 minutes. The samples were then centrifuged at 13000×g for 15 minutes at 2-8° C. After centrifugation the supernatant was removed carefully and pellet was discarded. […]

[2] = Pharmacokinetics: quantitative determination of compounds in mice plasma; assay type: in vivo, C57BL/6 Mice; conditions: 10 mg/kg PO single dose, vehicle 10% NMP
Protocol: C57BL/6 Mice, Age 7-9 weeks, body weight range 20-25 g were used. The mice were fasted overnight. Mice were dosed once a day for a single day at 10 mg/kg, 10 mg/kg. 6 time-points were used for whole blood. 10% NMP was used as a vehicle. 9 animals were used per treatment, with three groups of three animals each. Group 1 had time points at 15 and 60 minutes, Group 2 had time points at 30 and 120 minutes, and Group 3 had time points at 90 and 240 minutes. An Oral (PO) route was used. Plasma and brain samples were collected (brain sample collected at terminal time point). Plasma was collected through the centrifugation of whole blood at 10,000 rpm for 10 minutes at 4° C. Samples were stored at −80° C. until processing.
1.00 mg/mL in 100% MeOH PP vials (prepared at RT yellow light) at 2-8° C. were used as stock solution. 12.22-50000 ng/mL using 80% MeOH PP vials (prepared at RT yellow light) at 2-8° C. were used as working solution. 0.98-4000 ng/mL (prepared at RT yellow light) was used for the curve range. For Compounds 26, 40, and 50, 1.00 mg/mL of Compound 53 in 100% methanol Ria vials (Prepared at RT yellow light) was used as IS stock solution, and 80 ng/mL of Compound 53 in 80% methanol (Prepared at RT yellow light) was used as IS working solution. For Compound 36, 1.00 mg/mL of Compound 47 in 100% methanol Ria vials (Prepared at RT yellow light) was used as IS stock solution, and 80 ng/mL of Compound 47 in 80% methanol (Prepared at RT yellow light) was used as IS working solution. A linear, 1/×2 fit type was used. The injection volume was 10 μL for Compounds 26 and 36, and 5 μL for Compounds 40 and 50. Mobile Phase A was 0.1% Formic Acid in water at room temperature. Mobile Phase B was 100% methanol at room temperature. R0 wash solution was 80% methanol at room temperature. R3 wash solution was IPA/MeOH/ACN/water (1:1:1:1) at room temperature. The column was Agilent Eclipse 50*2.1 mm 1.8 μm and the instrument was Shimadzu LC-40 UPLC and AB Sciez 6500+ with LCMS002.
Using a pipette, 25 μL of each sample were aliquoted (calibration curve sample, QC samples and blank matrix) to labeled 1.5 ml eppendorf. Using a pipette, 5.0 μL of IS of conc. 80 ng (Cocktail IS) was aliquoted to each standards and samples except Blank. All tubes were mixed on a multi-tube vortex for approximately 30 seconds. 50 μL of 10 mM Sodium bi-carbonate were added. 1 ml of tert-butyl methyl ether (TBME) was added. All tubes were mixed on a multi-tube vortex for approximately 5 minutes then centrifuged for 10 min at 5,000 rpm for Compounds 26 and 36 and at 10,000 rpm for Compounds 40 and 50, 4° C. The sample was kept in methanol containing dry ice for few seconds to freeze the Aqueous layer (flash freeze method). The upper organic layer was poured from the frozen tubes into the labeled 12×75-mm rial vials and evaporated to dryness under nitrogen using Liquid Evaporator (30° C., ˜15 psi, ˜10 mins). 200 μl of reconstitution solution (0.1% Formic Acid: MeOH (20:80 v/v) were added into each tube. Samples were Vortexed for 30 seconds then transferred to amber glass injection vials for injection.
After test item administration, blood samples were collected from individual animals in previously labeled Heparinised blood collection tubes. Blood samples were collected from retro orbital plexus. The time points for collection of blood samples from all the animals are; 0.25, 0.5, 1, 2 and 4 hr. The collected samples were subjected to centrifugation @ 10,000 rpm for 10 minutes at 40° C. for separation of plasma. Thereafter, plasma samples were collected in previously labeled plasma tubes. These were stored at −80° C. until analysis.

[3] = LPS 3 mg/Kg IP, test compound 10 mg/kg PO BID, liver, 24 hours post LPS
[4] = LPS 0.25 + 0.5 + 1 mg/kg, test compound 10 mg/kg

T½ [2] | AUC(0-inf) ([2]; C57BL/6, mouse) | AUC(0-t) ([2]; C57BL/6, mouse) | Cmax ([2]; C57BL/6, mouse) | Tmax ([2]; C57BL/6, mouse) | Compound | % Activity (PGC-1α expression) ([1]; 1 mM) | PGC-1α levels (PGC-1α; [3]) | PGC-1α level (%) (PGC-1α; [3]) | PGC-1α level (PGC-1α; [4]) | PGC-1α level (%) (PGC-1α; [4]) | % Activity (PGC-1α expression) ([1]; 0.001 nM)
 |  |  |  |  | NC(=O)c1ncn([C@@H]2O[C@H](CO)[C@@H](O)[C@H]2O)c1N [AICAR, 5-aminoimidazole-4-carboxamide-1-β-D-ribofuranoside] | 148% and 140% and 130% and 128% |  |  |  |  | 
25.4 min | 2540 ng·h/mL | 2450 ng·h/mL | 2900 ng/mL | 15 min | CN(C)C(=O)[C@H]1CCC2C3CCC4=CC(=O)N(C)CC[C@]4(C)C3[C@@H](O)C[C@@]21C (stereo partly drawn) [Compound 50, (5aR,6S,7aS)-6-hydroxy-N,N,3,5a,7a-pentamethyl-2-oxo-2,3,4,5,5a,5b,6,7,7a,8,9,10,10a,10b,11,12-hexadecahydrocyclopenta[5,6]naphtho[1,2-d]azepine-8-carboxamide] |  | 38684 pg/mL and 24206 pg/mL | 110% and 80% | 2632 pg/mL | 40% | 
 |  |  |  |  | Oc1cc(O)c2c(c1)O[C@H](c1ccc(O)c(O)c1)[C@H](O)C2 [Epicatechin, (+)-Epicatechin, reference compound] |  | 33330 pg/mL and 31729 pg/mL and 21967 pg/mL | 63% and 90% and 72% | 3247 pg/mL | 49% | 129% and 123% and 120% and 122% and 125%
